Experimental data from US7612200B2, “Inhibitors of protein kinases” (Locus Pharmaceuticals, Inc., priority 2004, dated 2009).

Columns and labels:
Type in all cases: biochemical
IRAK4 = target: T1, IRAK4 (Homo sapiens, UniProt Q9NWZ3); experiment: Kinase activity at ATP Km,app, IRAK4; conditions: compound 2 μM
T1 sequence (Q9NWZ3 1-460): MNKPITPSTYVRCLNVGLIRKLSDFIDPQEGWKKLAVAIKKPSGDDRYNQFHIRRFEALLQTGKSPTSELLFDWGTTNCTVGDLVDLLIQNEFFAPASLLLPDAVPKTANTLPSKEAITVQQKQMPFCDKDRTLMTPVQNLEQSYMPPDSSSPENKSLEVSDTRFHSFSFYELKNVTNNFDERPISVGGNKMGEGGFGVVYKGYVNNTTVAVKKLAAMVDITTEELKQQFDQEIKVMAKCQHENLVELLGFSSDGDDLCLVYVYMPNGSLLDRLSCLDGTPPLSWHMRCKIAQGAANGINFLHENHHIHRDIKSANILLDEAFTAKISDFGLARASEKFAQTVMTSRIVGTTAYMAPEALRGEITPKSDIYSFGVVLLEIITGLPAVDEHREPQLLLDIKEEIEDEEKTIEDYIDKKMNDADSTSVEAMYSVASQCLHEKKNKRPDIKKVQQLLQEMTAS

CK2-alpha 1 = CK2-alpha 1 (Homo sapiens, UniProt P68400); experiment: Kinase activity at ATP Km,app, CK2-alpha 1; conditions: compound 2 μM
CK2-alpha 1, sequence (P68400 whole entry): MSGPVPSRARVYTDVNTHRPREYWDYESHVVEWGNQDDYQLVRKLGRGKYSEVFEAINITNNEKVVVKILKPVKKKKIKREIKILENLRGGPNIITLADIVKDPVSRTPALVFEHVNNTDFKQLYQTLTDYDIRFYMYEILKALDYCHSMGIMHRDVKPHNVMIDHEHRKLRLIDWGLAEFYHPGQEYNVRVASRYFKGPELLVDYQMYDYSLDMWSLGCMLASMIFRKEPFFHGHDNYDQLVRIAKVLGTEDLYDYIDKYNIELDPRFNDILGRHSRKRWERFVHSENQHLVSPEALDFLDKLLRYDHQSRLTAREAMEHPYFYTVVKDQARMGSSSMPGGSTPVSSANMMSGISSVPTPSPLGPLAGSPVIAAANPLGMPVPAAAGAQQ

LynA = LynA (Homo sapiens, UniProt P07948); experiment: Kinase activity at ATP Km,app, LynA; conditions: 40 min, compound 2 μM
LynA, sequence (P07948 whole entry): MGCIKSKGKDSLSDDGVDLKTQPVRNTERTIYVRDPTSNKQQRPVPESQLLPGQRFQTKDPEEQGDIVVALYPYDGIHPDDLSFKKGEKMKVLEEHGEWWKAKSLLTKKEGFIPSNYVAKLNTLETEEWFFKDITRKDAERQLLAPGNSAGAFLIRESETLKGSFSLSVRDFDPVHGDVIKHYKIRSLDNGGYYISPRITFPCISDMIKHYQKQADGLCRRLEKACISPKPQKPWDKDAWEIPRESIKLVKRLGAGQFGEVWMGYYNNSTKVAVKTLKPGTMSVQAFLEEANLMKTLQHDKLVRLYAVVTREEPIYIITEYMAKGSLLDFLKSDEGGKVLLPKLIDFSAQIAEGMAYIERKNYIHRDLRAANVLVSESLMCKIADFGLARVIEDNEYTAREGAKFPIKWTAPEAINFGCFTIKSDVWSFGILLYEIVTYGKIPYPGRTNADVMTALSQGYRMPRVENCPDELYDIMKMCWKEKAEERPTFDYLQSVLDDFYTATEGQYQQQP
Description: (§1) Lyn Kinase Activity: In a final reaction volume of 25 μl, Lyn (h) (5-10 mU) is incubated with 50 mM Tris pH 7.5, 0.1 mM EGTA, 0.1 mM Na3VO4, 0.1% β-mercaptoethanol, 0.1 mg/ml poly(Glue, Tyr) 4:1, 10 mM MgAcetate and [γ-^33P-ATP] (specific activity approx. 500 cpm/pmol, concentration as required). The reaction is initiated by the addition of the MgATP mix. After incubation for 40 minutes at room temperature, the reaction is stopped by the addition of 5 μl of a 3% phosphoric acid solution. 10 μl of the reaction is then spotted onto a Filtermat A and washed three times for 5 minutes in 75 mM phosphoric acid and once in methanol prior to drying and scintillation counting.

Src = Src (Homo sapiens, UniProt P12931); experiment: Kinase activity at ATP Km,app, Src; conditions: 40 min, compound 2 μM
Src, sequence (P12931 whole entry): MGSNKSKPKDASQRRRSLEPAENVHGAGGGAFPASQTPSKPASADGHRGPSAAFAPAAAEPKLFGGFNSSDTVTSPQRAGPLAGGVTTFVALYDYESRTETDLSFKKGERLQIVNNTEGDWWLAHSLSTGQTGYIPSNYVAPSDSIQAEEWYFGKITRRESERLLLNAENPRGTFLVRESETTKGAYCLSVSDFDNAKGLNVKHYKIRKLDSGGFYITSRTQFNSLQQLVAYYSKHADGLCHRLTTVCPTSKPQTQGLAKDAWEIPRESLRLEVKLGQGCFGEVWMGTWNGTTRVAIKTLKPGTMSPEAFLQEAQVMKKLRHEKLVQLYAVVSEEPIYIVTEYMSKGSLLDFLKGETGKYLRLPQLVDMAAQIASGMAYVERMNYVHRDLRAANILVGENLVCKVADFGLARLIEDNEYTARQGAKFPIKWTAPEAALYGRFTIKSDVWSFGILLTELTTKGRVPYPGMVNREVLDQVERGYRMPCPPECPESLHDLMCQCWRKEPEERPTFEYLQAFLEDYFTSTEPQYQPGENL
Description: cSRC Kinase Activity: In a final reaction volume of 25 μl, cSRC (h) (5-'0 mU) is incubated with 8 mM MOPS pH 7.0, 0.2 mM EDTA, 250 μM KVEKIGEGTYGVVYK (Cdc2 peptide), 10 mM MgAcetate and [γ-^33P-ATP] (specific activity approx. 500 cpm/pmol, concentratin as required). The reaction is initiated by the addition of the MgATP mix. After incubation for 40 minutes at room temperature, the reaction is stopped by the addition of 5 μl of a 3% phosphoric acid solution. 10 μl of the reaction is then spotted onto a P30 filtermat and washed three times for 5 minutes in 75 mM phosphoric acid and once in methanol prior to drying and scintillation counting.

Lck = Lck (Homo sapiens, UniProt P06239); experiment: Kinase activity at ATP Km,app, Lck; conditions: 40 min, compound 2 μM
Lck, sequence (P06239 whole entry): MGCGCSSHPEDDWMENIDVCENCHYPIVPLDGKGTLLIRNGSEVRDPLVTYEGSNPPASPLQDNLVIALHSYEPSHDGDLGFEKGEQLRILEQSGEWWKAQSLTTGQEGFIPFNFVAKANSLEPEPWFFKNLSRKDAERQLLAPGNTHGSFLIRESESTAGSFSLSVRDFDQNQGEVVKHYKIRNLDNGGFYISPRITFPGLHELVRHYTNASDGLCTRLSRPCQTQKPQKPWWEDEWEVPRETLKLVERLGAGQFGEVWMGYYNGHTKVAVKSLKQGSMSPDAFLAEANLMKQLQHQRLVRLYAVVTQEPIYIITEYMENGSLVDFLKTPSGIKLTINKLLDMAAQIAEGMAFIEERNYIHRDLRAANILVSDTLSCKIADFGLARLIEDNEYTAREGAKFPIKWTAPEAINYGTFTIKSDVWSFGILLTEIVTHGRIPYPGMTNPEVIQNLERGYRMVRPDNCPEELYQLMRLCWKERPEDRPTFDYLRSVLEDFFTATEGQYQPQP
Description: as §1, with “Lck” for “Lyn”, “[…], Lck” for “μl, Lyn”, “250 μM KVEKIGEGTYGVVYK (Cdc2 peptide),” for “0.1% β-mercaptoethanol, 0.1 mg/ml poly(Glue, Tyr) 4:1,”, “P30 filtermat” for “Filtermat A”

GSK3-beta = GSK3-beta (Homo sapiens, UniProt P49841); experiment: Kinase activity at ATP Km,app, GSK3-beta; conditions: 40 min, compound 2 μM
GSK3-beta, sequence (P49841 whole entry): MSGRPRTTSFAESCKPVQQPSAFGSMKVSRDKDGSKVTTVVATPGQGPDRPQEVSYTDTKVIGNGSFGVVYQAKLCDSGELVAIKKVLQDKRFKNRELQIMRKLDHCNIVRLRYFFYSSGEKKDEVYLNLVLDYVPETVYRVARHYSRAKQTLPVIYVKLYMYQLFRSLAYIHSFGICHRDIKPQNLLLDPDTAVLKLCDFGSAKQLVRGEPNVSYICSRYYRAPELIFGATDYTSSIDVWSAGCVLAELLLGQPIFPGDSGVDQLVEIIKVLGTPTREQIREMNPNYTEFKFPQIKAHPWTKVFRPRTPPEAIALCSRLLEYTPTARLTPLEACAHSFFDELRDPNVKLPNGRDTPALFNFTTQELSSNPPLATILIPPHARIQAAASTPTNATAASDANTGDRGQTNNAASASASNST
Description: GSK3β Kinase Activity: In a final reaction volume of 25 μl, GSK3β (h) (5-10 mU) is incubated with […] MOPS pH 7.0, 0.2 mM EDTA, […](p)EDEEE (phosphor GS2 peptide), 10 mM MgAcetate and [γ-^33P-ATP] (specific activity approx. 500 cpm/pmol, concentration as required). The reaction is initiated by the addition of the MgATP mix. After incubation for 40 minutes at room temperature, the reaction is stopped by the addition of 5 μl of a 3% phosphoric acid solution. 10 μl of the reaction is then spotted onto a P30 filtermat and washed three times for 5 minutes in 50 mM phosphoric acid and once in methanol prior to drying and scintillation counting.

Akt1 = Akt1 (Homo sapiens, UniProt P31749); experiment: Kinase activity at ATP Km,app, Akt1; conditions: compound 2 μM
Akt1, sequence (P31749 whole entry, species assumed): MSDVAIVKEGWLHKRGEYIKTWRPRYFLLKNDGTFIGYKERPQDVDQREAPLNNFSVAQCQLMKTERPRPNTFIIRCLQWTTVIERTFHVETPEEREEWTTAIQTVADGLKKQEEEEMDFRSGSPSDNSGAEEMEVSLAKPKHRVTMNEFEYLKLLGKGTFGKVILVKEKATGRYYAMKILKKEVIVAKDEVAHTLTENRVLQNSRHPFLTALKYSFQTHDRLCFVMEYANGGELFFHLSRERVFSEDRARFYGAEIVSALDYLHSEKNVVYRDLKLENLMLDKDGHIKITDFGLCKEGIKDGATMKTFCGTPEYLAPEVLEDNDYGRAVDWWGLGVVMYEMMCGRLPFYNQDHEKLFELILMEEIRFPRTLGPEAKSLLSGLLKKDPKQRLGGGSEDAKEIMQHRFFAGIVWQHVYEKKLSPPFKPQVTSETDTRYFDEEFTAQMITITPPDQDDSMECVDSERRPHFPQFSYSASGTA

Structure (SMILES)	% Inhibition at ATP Km,app (IRAK4)	inhibition at 2 µM (CK2-alpha 1) [%]	inhibition at 2 µM (LynA) [%]	inhibition at 2 µM (Src) [%]	inhibition at 2 µM (Lck) [%]	inhibition at 2 µM (GSK3-beta) [%]	inhibition at 2 µM (Akt1) [%]
CC(C)(C)c1cc(C(=O)N2CCNC(=O)C2)c(NC(=O)Nc2ccc(Oc3ccncc3)cc2)s1 [Example 2, 1-(5-tert-Butyl-3-(3-oxo-piperazine-1-carbonyl)thiophen-2-yl)-3-(4-(pyridin-4-yloxy)phenyl)urea]	0-25%	0 to 25	26 to 50	0 to 25	0 to 25	0 to 25	0 to 25
CC(C)(C)c1cc(C(=O)N2CCNC(=O)CC2)c(NC(=O)Nc2ccc(Oc3ccncc3)cc2)s1 [Example 4, 1-(5-tert-Butyl-3-(5-oxo-[1,4]diazepane-1-carbonyl)thiophen-2-yl)-3-(4-(pyridin-4-yloxy)phenyl)urea]	0-25%	0 to 25	51 to 76	0 to 25	0 to 25	0 to 25	0 to 25
CC(C)(C)c1cc(C(=O)N2CCNS(=O)(=O)CC2)c(NC(=O)Nc2ccc(Oc3ccncc3)cc2)s1 [Example 1, 1-(5-tert-Butyl-3-(1,1-dioxo-1λ^6-[1,2,5]thiadiazepane-5-carbonyl)thiophen-2-yl)-3-(4-(pyridin-4-yloxy)phenyl)urea]	0-25%	0 to 25	26 to 50	0 to 25	0 to 25	0 to 25	0 to 25
